Experiments:
[1] = target: Vascular endothelial growth factor receptor 1 (Homo sapiens) (UniProt P17948); assay: Inhibition of human FLT1/VEGFR1 using poly[Glu:Tyr] (4:1) as substrate at 1 uM in presence of 32P-ATP by Hotspot assay relative to control; values are per cent of control
[2] = target: Dual specificity mitogen-activated protein kinase kinase 2 (Homo sapiens) (UniProt P36507); assay: Inhibition of human MEK2 using ERK2 (K52R) as substrate at 1 uM in presence of 32P-ATP by Hotspot assay relative to control; values are per cent of control
Dual specificity mitogen-activated protein kinase kinase 2 (Homo sapiens), sequence (P36507 whole entry): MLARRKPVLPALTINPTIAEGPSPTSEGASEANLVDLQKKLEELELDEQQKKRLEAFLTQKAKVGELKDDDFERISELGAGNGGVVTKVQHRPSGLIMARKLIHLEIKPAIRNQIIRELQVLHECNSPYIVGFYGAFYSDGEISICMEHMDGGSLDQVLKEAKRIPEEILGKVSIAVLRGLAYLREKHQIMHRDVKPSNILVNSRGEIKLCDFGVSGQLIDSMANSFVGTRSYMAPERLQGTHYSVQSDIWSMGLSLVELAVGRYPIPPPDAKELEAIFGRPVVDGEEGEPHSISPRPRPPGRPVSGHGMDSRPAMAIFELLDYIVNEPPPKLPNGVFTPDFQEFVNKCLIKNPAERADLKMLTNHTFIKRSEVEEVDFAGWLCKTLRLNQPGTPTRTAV

[3] = target: SRSF protein kinase 2 (Homo sapiens) (UniProt P78362); assay: Inhibition of human SRPK2 using GRSRSRSRSR as substrate at 1 uM in presence of 32P-ATP by Hotspot assay relative to control; values are per cent of control
SRSF protein kinase 2 (Homo sapiens), sequence (P78362 whole entry, looked up): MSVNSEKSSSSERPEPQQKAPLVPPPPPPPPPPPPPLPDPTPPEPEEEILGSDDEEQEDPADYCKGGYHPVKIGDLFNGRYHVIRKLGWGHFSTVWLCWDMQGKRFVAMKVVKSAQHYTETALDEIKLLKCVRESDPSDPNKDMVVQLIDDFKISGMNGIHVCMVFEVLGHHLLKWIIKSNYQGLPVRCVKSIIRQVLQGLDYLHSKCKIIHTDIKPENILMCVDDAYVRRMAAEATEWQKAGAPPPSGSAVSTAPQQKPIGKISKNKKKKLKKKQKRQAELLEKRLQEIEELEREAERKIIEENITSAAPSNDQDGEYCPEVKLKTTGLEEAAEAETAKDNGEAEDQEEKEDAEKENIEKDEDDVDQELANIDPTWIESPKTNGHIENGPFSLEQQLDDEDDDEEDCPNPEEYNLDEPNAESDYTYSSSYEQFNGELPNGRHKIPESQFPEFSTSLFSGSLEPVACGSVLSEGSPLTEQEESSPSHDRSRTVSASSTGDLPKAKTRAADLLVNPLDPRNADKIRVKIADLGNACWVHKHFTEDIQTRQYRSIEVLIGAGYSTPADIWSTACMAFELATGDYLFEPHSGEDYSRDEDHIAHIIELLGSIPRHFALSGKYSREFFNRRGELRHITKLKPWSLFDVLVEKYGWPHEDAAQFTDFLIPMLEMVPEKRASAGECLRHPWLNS

[4] = target: T1, Serine/threonine-protein kinase A-Raf (Homo sapiens) (UniProt P10398); assay: Inhibition of human ARAF using MEK1 (K97R) as substrate at 1 uM in presence of 32P-ATP by Hotspot assay relative to control; values are per cent of control
T1 sequence (whole entry): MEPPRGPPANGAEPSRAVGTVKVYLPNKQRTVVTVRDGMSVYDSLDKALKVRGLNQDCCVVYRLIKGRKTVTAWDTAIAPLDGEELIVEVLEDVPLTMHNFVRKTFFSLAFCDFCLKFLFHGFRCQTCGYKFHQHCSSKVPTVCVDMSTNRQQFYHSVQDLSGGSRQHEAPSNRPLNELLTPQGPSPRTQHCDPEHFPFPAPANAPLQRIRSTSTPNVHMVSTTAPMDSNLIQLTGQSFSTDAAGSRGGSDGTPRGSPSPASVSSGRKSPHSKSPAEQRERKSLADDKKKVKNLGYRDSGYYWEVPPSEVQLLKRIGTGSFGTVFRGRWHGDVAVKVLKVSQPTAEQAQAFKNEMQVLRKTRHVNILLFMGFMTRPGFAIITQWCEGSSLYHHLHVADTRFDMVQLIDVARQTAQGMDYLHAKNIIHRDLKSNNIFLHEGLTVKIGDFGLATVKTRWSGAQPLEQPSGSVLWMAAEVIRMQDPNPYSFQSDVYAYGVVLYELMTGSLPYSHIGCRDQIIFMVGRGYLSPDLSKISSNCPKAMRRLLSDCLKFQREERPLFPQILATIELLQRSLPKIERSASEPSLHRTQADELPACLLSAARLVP

[5] = target: T2, Serine/threonine-protein kinase TAO3 (Homo sapiens) (UniProt Q9H2K8); assay: Inhibition of human TAOK3/JIK using myelin basic protein as substrate at 1 uM in presence of 32P-ATP by Hotspot assay relative to control; values are per cent of control
T2 sequence (whole entry): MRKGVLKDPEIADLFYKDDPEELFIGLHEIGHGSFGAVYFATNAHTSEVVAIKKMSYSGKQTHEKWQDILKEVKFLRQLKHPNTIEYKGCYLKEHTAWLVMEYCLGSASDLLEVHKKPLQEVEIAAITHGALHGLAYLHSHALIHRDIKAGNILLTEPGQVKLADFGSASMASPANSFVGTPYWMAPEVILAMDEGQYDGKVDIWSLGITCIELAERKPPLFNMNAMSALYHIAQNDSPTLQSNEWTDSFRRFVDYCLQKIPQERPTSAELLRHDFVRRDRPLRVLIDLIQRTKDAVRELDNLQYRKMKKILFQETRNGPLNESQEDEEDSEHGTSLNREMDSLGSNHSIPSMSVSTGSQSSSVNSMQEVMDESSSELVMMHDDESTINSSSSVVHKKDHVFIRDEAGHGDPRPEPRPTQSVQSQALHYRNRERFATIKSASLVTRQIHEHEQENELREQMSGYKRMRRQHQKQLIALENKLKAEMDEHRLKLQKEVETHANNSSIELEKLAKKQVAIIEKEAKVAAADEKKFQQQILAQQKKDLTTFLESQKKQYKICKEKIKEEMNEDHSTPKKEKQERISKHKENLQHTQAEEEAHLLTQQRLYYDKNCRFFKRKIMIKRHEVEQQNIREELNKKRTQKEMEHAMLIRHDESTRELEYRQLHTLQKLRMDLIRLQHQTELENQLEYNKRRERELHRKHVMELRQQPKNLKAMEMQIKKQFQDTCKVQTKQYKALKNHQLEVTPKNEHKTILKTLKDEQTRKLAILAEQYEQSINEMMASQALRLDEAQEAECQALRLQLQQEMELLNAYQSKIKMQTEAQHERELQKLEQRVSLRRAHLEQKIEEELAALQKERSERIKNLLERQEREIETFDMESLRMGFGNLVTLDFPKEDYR

[6] = target: Casein kinase I isoform alpha (Homo sapiens) (UniProt P48729); assay: Inhibition of human CK1a1 using KRRRAL[pS]VASLPGL as substrate at 1 uM in presence of 32P-ATP by Hotspot assay relative to control; values are per cent of control
Casein kinase I isoform alpha (Homo sapiens), sequence (P48729 2-337 limits assumed): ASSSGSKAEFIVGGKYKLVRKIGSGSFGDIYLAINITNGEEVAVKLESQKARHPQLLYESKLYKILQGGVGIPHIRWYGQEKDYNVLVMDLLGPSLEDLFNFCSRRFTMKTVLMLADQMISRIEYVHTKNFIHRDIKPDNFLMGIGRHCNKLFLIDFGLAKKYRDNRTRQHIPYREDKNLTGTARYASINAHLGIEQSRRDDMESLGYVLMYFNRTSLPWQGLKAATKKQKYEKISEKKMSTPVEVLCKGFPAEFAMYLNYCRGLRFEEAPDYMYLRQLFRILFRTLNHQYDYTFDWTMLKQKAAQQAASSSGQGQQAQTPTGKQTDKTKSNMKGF

[7] = target: High affinity nerve growth factor receptor (Homo sapiens) (UniProt P04629); assay: Inhibition of human TRKA using poly[Glu:Tyr] (4:1) as substrate at 1 uM in presence of 32P-ATP by Hotspot assay relative to control
High affinity nerve growth factor receptor (Homo sapiens), sequence (P04629 33-796 limits assumed): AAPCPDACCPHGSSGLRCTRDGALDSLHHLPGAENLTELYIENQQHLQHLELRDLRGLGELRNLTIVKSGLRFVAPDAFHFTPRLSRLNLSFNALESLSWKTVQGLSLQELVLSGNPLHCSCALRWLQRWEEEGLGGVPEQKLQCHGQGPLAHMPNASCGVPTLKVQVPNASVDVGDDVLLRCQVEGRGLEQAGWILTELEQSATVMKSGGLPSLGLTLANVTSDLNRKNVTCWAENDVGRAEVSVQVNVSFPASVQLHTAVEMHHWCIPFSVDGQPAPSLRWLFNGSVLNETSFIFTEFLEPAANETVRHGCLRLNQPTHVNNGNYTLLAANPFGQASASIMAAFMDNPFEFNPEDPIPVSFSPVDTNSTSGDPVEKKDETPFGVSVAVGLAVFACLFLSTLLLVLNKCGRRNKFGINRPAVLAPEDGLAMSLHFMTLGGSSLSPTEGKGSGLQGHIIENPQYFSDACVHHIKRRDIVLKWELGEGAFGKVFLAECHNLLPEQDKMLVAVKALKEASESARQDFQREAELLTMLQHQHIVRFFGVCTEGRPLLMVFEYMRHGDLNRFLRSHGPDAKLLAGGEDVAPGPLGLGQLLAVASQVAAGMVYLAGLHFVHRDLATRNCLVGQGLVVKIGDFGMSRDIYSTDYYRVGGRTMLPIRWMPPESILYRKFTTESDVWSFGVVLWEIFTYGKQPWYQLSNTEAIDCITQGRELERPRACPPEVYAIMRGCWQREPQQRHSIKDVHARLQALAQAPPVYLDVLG

[8] = target: Death-associated protein kinase 1 (Homo sapiens) (UniProt P53355); assay: Inhibition of human DAPK1 using KKLNRTLSFAEPG as substrate at 1 uM in presence of 32P-ATP by Hotspot assay relative to control; values are per cent of control
Death-associated protein kinase 1 (Homo sapiens), sequence (P53355 whole entry, looked up): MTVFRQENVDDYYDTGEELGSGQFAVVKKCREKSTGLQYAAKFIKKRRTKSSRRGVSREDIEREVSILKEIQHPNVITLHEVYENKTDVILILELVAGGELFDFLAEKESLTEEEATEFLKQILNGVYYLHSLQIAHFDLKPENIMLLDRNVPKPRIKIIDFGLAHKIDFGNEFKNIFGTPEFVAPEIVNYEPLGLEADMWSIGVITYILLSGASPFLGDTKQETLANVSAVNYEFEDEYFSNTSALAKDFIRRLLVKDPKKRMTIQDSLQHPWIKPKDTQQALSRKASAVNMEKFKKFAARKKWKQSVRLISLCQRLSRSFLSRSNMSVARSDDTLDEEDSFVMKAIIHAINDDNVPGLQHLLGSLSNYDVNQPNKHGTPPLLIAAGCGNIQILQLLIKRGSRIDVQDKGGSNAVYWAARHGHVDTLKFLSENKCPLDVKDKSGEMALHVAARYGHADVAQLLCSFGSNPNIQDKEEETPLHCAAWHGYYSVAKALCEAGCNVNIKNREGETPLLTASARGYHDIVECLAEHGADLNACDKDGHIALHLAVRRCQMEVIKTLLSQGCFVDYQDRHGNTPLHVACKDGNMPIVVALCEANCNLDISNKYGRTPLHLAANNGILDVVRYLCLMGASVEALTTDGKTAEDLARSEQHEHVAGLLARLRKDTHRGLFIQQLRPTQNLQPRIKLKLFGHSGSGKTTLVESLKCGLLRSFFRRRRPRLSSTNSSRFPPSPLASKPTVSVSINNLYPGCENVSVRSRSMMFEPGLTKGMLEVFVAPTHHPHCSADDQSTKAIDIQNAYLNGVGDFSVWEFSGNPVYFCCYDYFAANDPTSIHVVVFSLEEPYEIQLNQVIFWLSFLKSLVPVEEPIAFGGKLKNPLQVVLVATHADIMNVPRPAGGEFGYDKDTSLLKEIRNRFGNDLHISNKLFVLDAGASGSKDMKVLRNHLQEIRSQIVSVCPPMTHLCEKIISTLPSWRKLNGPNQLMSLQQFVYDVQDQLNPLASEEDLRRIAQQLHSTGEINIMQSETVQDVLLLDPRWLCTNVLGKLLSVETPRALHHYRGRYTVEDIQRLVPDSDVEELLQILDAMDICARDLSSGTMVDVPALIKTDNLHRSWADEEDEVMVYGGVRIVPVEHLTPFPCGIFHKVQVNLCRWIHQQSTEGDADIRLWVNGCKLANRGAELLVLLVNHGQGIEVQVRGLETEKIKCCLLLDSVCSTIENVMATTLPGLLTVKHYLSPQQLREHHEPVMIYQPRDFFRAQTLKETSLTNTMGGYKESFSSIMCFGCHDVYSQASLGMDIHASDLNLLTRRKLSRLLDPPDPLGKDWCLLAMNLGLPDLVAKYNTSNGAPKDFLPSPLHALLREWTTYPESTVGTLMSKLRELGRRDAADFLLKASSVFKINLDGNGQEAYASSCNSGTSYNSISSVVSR

Vascular endothelial growth factor receptor 1 (Homo sapiens), sequence (P17948 whole entry): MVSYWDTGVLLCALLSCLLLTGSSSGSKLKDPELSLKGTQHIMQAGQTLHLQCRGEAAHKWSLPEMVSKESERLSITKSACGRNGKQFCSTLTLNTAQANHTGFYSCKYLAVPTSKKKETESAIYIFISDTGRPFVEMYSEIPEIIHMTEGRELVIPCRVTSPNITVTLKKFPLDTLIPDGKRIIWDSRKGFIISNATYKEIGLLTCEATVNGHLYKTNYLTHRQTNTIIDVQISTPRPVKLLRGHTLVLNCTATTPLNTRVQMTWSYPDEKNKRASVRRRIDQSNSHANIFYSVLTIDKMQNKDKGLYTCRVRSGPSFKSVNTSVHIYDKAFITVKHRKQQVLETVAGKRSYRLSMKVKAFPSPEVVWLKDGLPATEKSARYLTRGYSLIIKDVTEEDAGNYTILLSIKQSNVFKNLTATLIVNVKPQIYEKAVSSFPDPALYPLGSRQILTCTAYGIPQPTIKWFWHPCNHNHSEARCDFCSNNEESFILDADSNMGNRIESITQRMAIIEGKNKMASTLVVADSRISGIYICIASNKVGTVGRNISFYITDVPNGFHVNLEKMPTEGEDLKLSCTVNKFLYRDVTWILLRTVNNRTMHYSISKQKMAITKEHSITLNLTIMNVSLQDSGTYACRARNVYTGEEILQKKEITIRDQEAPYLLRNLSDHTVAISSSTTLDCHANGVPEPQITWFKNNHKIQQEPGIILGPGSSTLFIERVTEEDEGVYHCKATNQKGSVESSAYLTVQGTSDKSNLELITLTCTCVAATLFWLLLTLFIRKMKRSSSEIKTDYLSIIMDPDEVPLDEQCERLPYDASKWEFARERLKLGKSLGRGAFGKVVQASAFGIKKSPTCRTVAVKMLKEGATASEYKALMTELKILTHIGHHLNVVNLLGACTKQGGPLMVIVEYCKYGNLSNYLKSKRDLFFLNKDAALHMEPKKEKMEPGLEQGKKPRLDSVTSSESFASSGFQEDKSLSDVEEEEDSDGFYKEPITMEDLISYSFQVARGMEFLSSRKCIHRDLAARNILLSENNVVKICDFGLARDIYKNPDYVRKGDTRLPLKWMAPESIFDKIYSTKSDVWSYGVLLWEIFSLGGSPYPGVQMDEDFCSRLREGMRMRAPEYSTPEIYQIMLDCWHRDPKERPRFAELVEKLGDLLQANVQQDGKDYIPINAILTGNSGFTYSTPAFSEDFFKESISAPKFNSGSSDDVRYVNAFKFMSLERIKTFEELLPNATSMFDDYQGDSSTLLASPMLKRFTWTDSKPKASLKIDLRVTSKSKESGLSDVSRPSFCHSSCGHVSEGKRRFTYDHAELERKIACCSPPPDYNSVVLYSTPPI

Cc1cc(-c2cnc(N)c3c(-c4ccc5scnc5c4)csc23)n(C)n1
residual activity [1]: 96.8%
residual activity [2]: 97.8%
residual activity [3]: 96.2%
residual activity [4]: 65.3%
residual activity [5]: 99.4%
residual activity [6]: 88.4%
inhibition [7]: 84.7%
residual activity [8]: 95.3%

CNC(=O)c1ccc2c(c1)ncn2-c1ccc(CC(=O)OC(C)(C)C)cc1
residual activity [1]: 72.5%
residual activity [2]: 98.3%
residual activity [3]: 98.5%
residual activity [4]: 93.2%
residual activity [5]: 95.2%
residual activity [6]: 98.5%
inhibition [7]: 79.5%
residual activity [8]: 91.6%

CC(C)S(=O)(=O)c1ccc2nccc(Nc3ccc4scnc4c3)c2c1
residual activity [1]: 85%
residual activity [2]: 105%
residual activity [3]: 94%
residual activity [4]: 45.7%
residual activity [5]: 96.4%
residual activity [6]: 105%
inhibition [7]: 89.3%
residual activity [8]: 97%
